Test results from US20230219898A1, “COMPOUNDS AND METHODS FOR BLOCKING APOPTOSIS AND INDUCING AUTOPHAGY” (President and Fellows of Harvard College, priority 2020, published 2023).

What was measured:
[1] = system: brain slices from PS19 mice; assay: Cultured organotypic brain slices from PS19 mice; format: cell-based; details: treatment for 3 h
Protocol: FIG. 14g contains epresentative images and quantification of cultured brain slices from PS19 mice (4 months old) stained with phospho-tau (red) and cell nuclei (DAPI/blue). Mean ±s.e.m. from biological replicates (n=5). Two-tailed t-test.
PS19 mice (4 months old) were anesthetized with isoflurane prior to decapitation. The brain was removed and immediately immersed in ice-cold cutting solution (2.5 mM KCl, 5 mM MgCl2, 11 mM D-Glucose, 238 mM Sucrose, 26 mM NaHCO3, 1 mM NaH2PO4, 1 mM CaCl2)). The cerebellum was trimmed off and the caudal end of the brain was glued onto the cutting table of the vibratome (LEICA VT1000 S, Germany). The brain was cut in coronal slices of […] with an amplitude of 1.5 mm, a frequency of 75 Hz and a velocity of 0.1 mm/s. The slices were collected and stored in ice-cold cutting solution before floating onto semi-porous membrane inserts (Millipore, Millicell-CMLow Height Culture Plate Inserts, Schwalbach, Germany). Slices were cultured at 37° C. and 5% CO2 in a culture medium consisting of 394 ml MEM, 10% normal horse serum, 5 mg/mL penicillin, 5 mg/mL streptomycin, 2.5 ml L-glutamine, 1 mM MgSO4, 11 mM D-Glucose, 238 mM Sucrose, 5 mM NaHCO3, 1 mM CaCl2), 26.6 mM HEPES, 0.024 ml 25% ascorbic acid and 0.5 mg Insulin. Medium was changed every other day. Slices are maintained for 14 days in vitro prior to treatment.

[2] = Pharmacokinetic (DMPK) study of Apt-1, intracerebroventricular micro-osmotic pump; format: in vivo, mice; details: mouse, hippocampus, ICV pump 20 mM Apt-1, 0.25 μl/h
Protocol: Apt-1 was delivered using intracerebroventricular Alzet micro-osmotic pump (20 mM Apt-1, […], release rate: […]). CSF was collected at 1 h, 6 h, and 24 h. Hippocampi were collected at 24 h. The concentrations of Apt-1 were measured by HPLC. The concentration of Apt-1 in hippocampus at 24 h was 6.27 μM. Mean ±s.e.m. (n=3 mice in each group).
WT mice (2 months old) were deeply anesthetized with isoflurane and immobilized in a stereotaxic frame using predetermined coordinates under aseptic conditions. All animals were observed during and after surgery, and an analgesic was administered after surgery. Apt-1 (20 mM, 100 μl, release rate: 0.25 μl/h) was delivered intracerebroventricularly via an ALZET micro-osmotic pump (ALZET Model 1002) and ALZET brain infusion kits into lateral ventricles (ML, −1.0 mm; AP, −0.5 mm; DV, 2.0 mm). The ALZET micro-osmotic pumps were fixed on the skulls of the mice by instant adhesive and the skin incision was closed by suture. At 1 h, 6 h and 24 h after the onset of delivery, cerebrospinal fluid (CSF) was carefully withdrawn by a Hamilton syringe from lateral ventricles (ML, −1.0 mm; AP, −0.5 mm; DV, 2.0 mm) for DMPK analysis. The mice were sacrificed at 24 h and the hippocampi were dissected for DMPK analysis. […] The concentrations of Apt-1 in collected samples were measured by HPLC as a custom service by the Scripps Research Institute Florida.

TRADD-N and TRAF2-C [3] = molecular target: T1, TRADD-N and TRAF2-C (Homo sapiens, UniProt Q15628); assay: NanoBiT protein-protein interaction assay TRADD-N / TRAF2-C; format: cell-based
T1 construct: expression constructs encoding Flag-TRADD-N(1-179) and HA-TRADD-C(180-312); expressed in transfected cells; host or cells: HEK293T
Protocol: Mean ±s.d. from quadruplicates (n=4).
The Nano-Glo Live Cell assay kit (Promega) was used as follows: HEK293T cells were seeded at 7.5×10^3 cells per well in a white, clear-bottom 96-well plate 12 h before transfection (10 ng LgBiT-fused construct and 10 ng SmBiT-fused construct). After 24 h incubation, medium was removed and replaced with 100 μl Opti-MEM medium for 1 h at 37C. The Nano-Glo reagent was prepared as per manufacturer's instructions and added to each well immediately before the luminescence reading was taken. Luminescence was measured at 1 min intervals for 10 min on a plate reader and reported as relative light units (RLU). For quantitative comparison of LgBiT-SmBiT interactions, the peak values at the 2-3 min time point were used. Concentration of compounds used in NanoBiT assay: 10 μM (Apt-1, ICCB-19 or ICCB-19i).

TRADD-N and TRAF2-C [4] = molecular target: T1, TRADD-N and TRAF2-C; assay: Cell-free FRET assay TRADD-N / TRAF2-C; format: biochemical; details: incubated 1 h
Protocol: When FRET occurs, the acceptor mVenus-TRADDN-Flag (mV-TRADDN) emission will increase and the donor emission will decrease. Apt-1 was added to the system with indicated concentration and incubated for 1 h, then subjected to FRET assay.
mVenus- and Flag-tagged TRADD-N(mVenus-TRADDN-Flag) and mCerulean- and Flag-tagged TRAF2C (Flag-TRAF2C-mCerulean) was expressed in HEK293T cells for 48 h. Then cells were lysed in NP-40 buffer followed by immunoprecipitation using anti-Flag affinity gel. The proteins were eluted by 5 mg/ml 3×Flag peptide and exchanged into assay buffer (120 mM NaCl, 20 mM NaH2PO4/Na2HPO4, pH 7.4) by dialysis for FRET assay. The proteins were added into Coming black 96-well microtiter plates in triplicates at a final concentration of 1 μM. Apt-1 was incubated with the proteins for 1 h before measurement. Measurements were performed on a fluorescent plate reader (Victor3, 1420 Multilabel counter, Perkin Elmer). The following filter set was used: mCerulean filter set (excitation: 430/15 nm, emission: 460/20 nm); mVenus filter set (excitation: 485/15, emission 535/15); FRET filter set (430/15 nm, emission 450-600 nm).

T1 sequence (Q15628 1-179): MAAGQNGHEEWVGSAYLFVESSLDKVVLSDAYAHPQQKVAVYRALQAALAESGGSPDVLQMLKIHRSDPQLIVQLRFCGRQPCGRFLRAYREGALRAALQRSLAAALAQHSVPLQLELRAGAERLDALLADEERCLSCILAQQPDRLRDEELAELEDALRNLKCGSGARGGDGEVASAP

CN1CCN=C1SC(C(=O)NC1CCCCCC1)c1ccccc1 (stereo not shown) [Compound 30]
autophagy and accumulation of mutant tau in brain slices [1]: induced autophagy and reduced the accumulation of mutant tau
concentration at 24 h [2]: 6.27 µM
direct binding of TRADD-N and TRAF2 (NanoBiT) (TRADD-N and TRAF2-C [3]): dose-dependently reduced
binding of TRADD-N to TRAF2-C (FRET) (TRADD-N and TRAF2-C [4]): dose-dependently reduced
